# US20230391868A1, “COMPOSITIONS FOR AND METHODS OF TREATING CANCER” (The George Washington University, priority 2022, published 2023)
# Assays:
# Assay type in all cases: cell-based, mouse
# [1] = system: A31A7 macrophages and BMDMs; experiment: Macrophage M1/M2 marker gene expression by qRT-PCR
# Procedure: Bone marrow-derived macrophages were isolated from the femurs and tibias of wild-type C57/Bl6, HDAC6 knockout (C57BL/6J-Hdac6em2Lutzy/J, 029318, Jackson Laboratory), or UBC-GFP (C57BL/6-Tg(UBC-GFP)30Scha/J, 004353, Jackson Laboratory). Isolated bone marrow cells were cultured in RPMI 1640 complete medium with 10% FBS, 1% NEAA, and 1% penicillin-streptomycin in 5% CO2 at 37° C. Medium was supplemented with murine recombinant M-CSF (20 ng/mL, 576404, Biolegend) to differentiate monocytes into macrophages. Three days after bone marrow isolation, undifferentiated and floating cells were washed with PBS and replaced with fresh RPMI media. […]
# Macrophages were polarized to M1-like phenotype using 50 ng/mL of interferon gamma (IFNγ, 575306, Biolegend) and 100 ng/mL of bacterial lipopolysaccharide (LPS, L2880, Sigma Aldrich, St. Louis, MO) for 24 hours. To polarize macrophages towards the M2-like phenotype, macrophages were stimulated with 20 ng/mL of IL-4 (214-14, PeproTech) and 20 ng/mL of IL-13 (575904, Biolegend). THP1 monocytes were treated with 5 ng/mL of phorbol 12-myristate 13-acetate (PMA) to induce differentiation into macrophages. Once converted to macrophages, media was replaced to remove PMA prior to treatment and/or polarization. Polarization towards M1 and M2 phenotypes was performed with respective recombinant human cytokines from PeproTech: 50 ng/mL of IFNγ (300-02), 20 ng/mL IL-4 (200-04), and 20 ng/mL IL-13 (200-13). 100 ng/mL LPS was also used to polarize toward the M1 phenotype. 3. In vivo Studies.
# qRT-PCR: Total RNA was extracted from cells using the Trizol reagent according to manufacturer's instructions (ThermoFisher Scientific, 15596018). Samples were then processed immediately or stored at −80° C. RNA was quantified using a NanoDrop One Spectrophotometer (ThermoFisher Scientific). The 260/280 ratios were routinely over 1.8. Sample cDNA was produced using the iScript cDNA synthesis kit (Bio-Rad, 1708891). Target mRNA was quantified using MyIQ single-color real-time PCR detection system from Bio-Rad (Bio-Rad, Hercules, CA) and iQ SYBR green Supermix (Bio-Rad, 1708882). The following primers were synthesized by Invitrogen (Waltham, MA) with sequences designed by Origene (Rockville, MD): mouse R-actin (MP200232), mouse Nos2 (MP208933), mouse MRC1 (MP207800), human R-actin (HP204660), human IL-1β (HP200544), human MRC1 (HP206121), human NOS2 (HP200591), human CD209 (HP214086), mouse SIRPα (MP215450), mouse LRP1 (MP207604), human LRP1 (HP206040), mouse MFGE8 (MP208190), human MFGE8 (HP225757), mouse CD36 (MP201923), human CD36 (HP200058), and mouse CD47 (MP201932). Primers for mouse ARG-1 (PPM31770C) and human SIRPα (QT01031051) were purchased from Qiagen (Hilden, Germany). Human CD47 primer sequences were obtained from Sudo T, et al and are 5′-[…]-3′ (sense) (SEQ ID NO:01) and 5′-[…]-3′ (antisense) (SEQ ID NO:02) (Sudo T, et al. (2017) Oncol. Lett. 14:801-809). Human CD86 primer sequences are 5′-[…]-3′ (sense) (SEQ ID NO:03) and 5′-[…]-3′ (antisense) (SEQ ID NO:04). Mouse CD80 sequences are 5′-[…]-3′ (sense) (SEQ ID NO:05) and 5′-[…]-3′ (antisense) (SEQ ID NO:06). Cycling conditions were set as per manufacturer's instructions. Single product amplification was confirmed by melting curve analysis. Quantification is expressed in arbitrary units and target mRNA levels were normalized to R-actin expression.
# SM1 cells = experiment: Phagocytosis kinetics by live cell imaging
# Procedure: After co-culture, slides were fixed in 4% paraformaldehyde. Slides were incubated overnight with primary anti-GFP antibody (Cell Signaling, 2956) at 4° C. Slides were incubated with goat anti-rabbit IgG conjugated to Alexa Fluor 488 (A11008, ThermoFisher). Slides were mounted using VECTASHIELD Antifade Mounting Medium with DAPI (H-1200-10, Vector Laboratories, Burlingame, CA). Slides were imaged using a Zeiss 710 confocal microscope. Phagocytosis was quantified using Fiji by Image J, and the percentage of phagocytosis was calculated by dividing the number of GFP+ macrophages containing red dye in their vesicles out of total GFP+ macrophages. Live imaging was performed following a similar protocol and images were acquired through ImageXpress Pico Automated Cell Imaging System (Molecular Devices, San Jose, CA, USA).
# To assess the phagocytosis kinetics in those groups, live cell imaging was performed and phagocytosis was tracked for 4 hr. after the macrophages and SM1 cells were co-cultured for an hour. Images were acquired every four minutes thereafter.
# SM1 melanoma cells = experiment: Cd47 mRNA upon IFNγ stimulation in SM1 cells; conditions: IFNγ for 12 hours
# Procedure: qRT-PCR: Total RNA was extracted from cells using the Trizol reagent according to manufacturer's instructions (ThermoFisher Scientific, 15596018). Samples were then processed immediately or stored at −80° C. RNA was quantified using a NanoDrop One Spectrophotometer (ThermoFisher Scientific). The 260/280 ratios were routinely over 1.8. Sample cDNA was produced using the iScript cDNA synthesis kit (Bio-Rad, 1708891). Target mRNA was quantified using MyIQ single-color real-time PCR detection system from Bio-Rad (Bio-Rad, Hercules, CA) and iQ SYBR green Supermix (Bio-Rad, 1708882). The following primers were synthesized by Invitrogen (Waltham, MA) with sequences designed by Origene (Rockville, MD): mouse R-actin (MP200232), mouse Nos2 (MP208933), mouse MRC1 (MP207800), human R-actin (HP204660), human IL-1β (HP200544), human MRC1 (HP206121), human NOS2 (HP200591), human CD209 (HP214086), mouse SIRPα (MP215450), mouse LRP1 (MP207604), human LRP1 (HP206040), mouse MFGE8 (MP208190), human MFGE8 (HP225757), mouse CD36 (MP201923), human CD36 (HP200058), and mouse CD47 (MP201932). Primers for mouse ARG-1 (PPM31770C) and human SIRPα (QT01031051) were purchased from Qiagen (Hilden, Germany). […] Quantification is expressed in arbitrary units and target mRNA levels were normalized to R-actin expression.
# Although the mechanism by which IFNγ drives CD47 upregulation is unclear, IFNγ expression correlates to CD47 expression in skin cutaneous melanoma (Ye Z H, et al. (2021) Transl. Oncol. 14:101162). The kinetics of Cd47 mRNA in SM1 and B16 cells upon IFNγ stimulation (100 ng/mL) were evaluated and these mouse melanoma models were determined to have different kinetics (FIG. 9A-FIG. 9B). It was determined that 12 hours was a time point for both models to sustain the IFNγ-mediated upregulation. In FIG. 9B, the role of HDAC6 inhibitors NextA and Tubastatin A in abrogating Cd47 upregulation upon stimulation with IFNγ for 12 hours was evaluated.
smiles,measurement,setting,value
"CCCCN(Cc1ccc(C(=O)NO)cc1)C(=O)Nc1ccccc1 [NextA, Nexturastat A]",phenotypic changes in both macrophage polarizations,"[1]; A31A7, 5 μM of NextA",elicited observable phenotypic changes
same,expression of Cd80 in M1 polarized macrophages,"[1]; A31A7, different concentrations of NextA, qRT-PCR (FIG. 7B)",concentration-dependent effect
same,expression of Arg1 in M2 polarized macrophages,"[1]; A31A7, different concentrations of NextA, qRT-PCR (FIG. 7C)",concentration-dependent effect
same,Nos2 and Cd80 at the transcriptional level,"[1]; A31A7 and BMDMs polarized to M1 or M1(IFNγ), 5 μM (FIG. 1A)",tended to significantly upregulate
same,expression of M2-associated markers Arg1 and Mrc1,"[1]; A31A7 cells and BMDMs, M2, qRT-PCR, 5 μM (FIG. 1C)",significantly downregulated
same,maximum phagocytosis reached,"SM1 cells; M1 NextA treated macrophages, IgG control group (FIG. 4L)",approximately 20%
same,phagocytosis rate over time,"SM1 cells; M1 macrophages with SM1 cells, tracked for 4 hr (FIG. 4L)",steady increase in phagocytosis over time
same,IFNγ-driven Cd47 upregulation at the transcriptional level,SM1 melanoma cells,repressed these effects
